In patent US11135145B2 (priority 2015, dated 2021):
Several values for one entry are separate records, joined by “and”; a condition that tells them apart may be missing. Equal values may be shown once. Read-outs that look alike come from different tables or passages of the source.

How the values were obtained:
[1] = tested on: NQO-1 antioxidant response element (NQO-1 - ARE); test: NQO-1-ARE luciferase reporter HepG2 cell line; assay type: cell-based, human; settings: for NQO-1—ARE transcription in HepG2 cells (in words): 5 μM; for NQO-1 - ARE transcription, normalised to positive control (blank = 0%, 10 μM trans-resveratrol = 100%): 5 μM single compound; for NQO-1 - ARE transcription, normalised to positive control (blank = 0%, 10 μM trans-resveratrol = 100%) / NQO-1 - ARE transcription, normalised to positive control: HepG2, 6 hours, n = 3, ± SD
Experimental: A pGL4.22[luc2CP/puro] reporter vector containing NQO-1-ARE was transfected into the HepG2 cell line according to the method set forth in Xue et al (Biochem J 443: 213-222, (2012)). Transfected HepG2 cells were selected with puromycin (1 μg/ml). After culture for 3 weeks, puromycin-resistant cells were screened for luciferase activity after treatment with 4 μM sulforaphane for 6 hours. After validation of positive clones by measuring luciferase activity, the NQO-1-ARE stable cell line was expanded in selection media.
(§1) Stable transfectant cell line was incubated with and without test compounds for 6 hours in MEM with 10% fetal calf serum and 2 mM glutamine under an atmosphere of 5% CO2 in air, 100% humidity and 37° C. For the reporter assay, 100 μl Cell Culture Lysis Reagent (CCLR, Promega) was added to cell and shaken gently for 30 minutes. The mixture of cell lysate was centrifuged (12,000 g, 5 minutes, 4° C.) and an aliquot (20 μl) of supernatant used in the reporter assay. The luciferase activity was determined using a Luciferase Assay System (Promega). The luciferase response is given in Relative Light Units (RLU).
(§2) These were produced by transfection of a pGL4.22[luc2CP/puro] reporter vector containing NQO1-ARE or GLO1-ARE into the HepG2 cell line. Transfected HepG2 cells were selected with puromycin (1 μg/ml). After culture for 3 weeks, puromycin-resistant cells were screened for luciferase activity after treatment with 4 μM SFN for 6 h. After validation of positive clones by measuring luciferase activity, the stable cell line was expanded in selection media and thereafter used in studies for screening of bioactive compounds and synergism. Stable transfectant cell lines were incubated with and without bioactive compounds and combination of tRES and HESP (0.625-5.0 μM) for 6 h in MEM medium with 10% fetal calf serum and 2 mM glutamine under an atmosphere of 5% CO2 in air, 100% humidity and 37° C. This incubation period was optimum to judge initial rate of increase in transcriptional response in cells treated with compounds without increase in untreated controls. For the reporter assay, 100 μl Cell Culture Lysis Reagent (CCLR, Promega, Southampton, UK) was added to cell and shaken gently for 30 min. The mixture of cell lysate was centrifuged (12,000 g, 5 min, 4° C.) and an aliquot (20 μl) of supernatant used in the reporter assay. The luciferase activity was determined using a Luciferase Assay System (Promega). The luciferase response is given in Relative Light Units (RLU). Data are corrected for blank response and normalised to the highest effect (100%) achieved with 10 μM tRES. Data of normalised responses (blank=0%, 10 μM tRES=100%) for varied bioactive concentrations are fitted by non-linear regression to a dose-response curve, E=Emax×[Bioactive]^n/(EC50^n+[Bioactive]^n), solving for EC50 and n (logistic regression coefficient—also called the Hill coefficient). Nrf2-dependent transcriptional response was verified by siRNA silencing of Nrf2, as described in Xue et al., Biochem J 443, 213-222 (2012).

[2] = tested on: glyoxalase 1 antioxidant response element (GLO1-ARE); test: Stable transfectant GLO1-ARE luciferase reporter HepG2 cell line; assay type: cell-based, human; settings: for GLO1-ARE transcription, normalised to positive control (blank = 0%, 10 μM trans-resveratrol = 100%): 5 μM single compound; for GLO1-ARE transcription, normalised to positive control (blank = 0%, 10 μM trans-resveratrol = 100%) / GLO1-ARE transcription, normalised to positive control: 6 hours, n = 3, ± SD; for Emax / EC50: Homo sapiens; for Emax: 10 μM tRES = 100%
Experimental: A pGL4.22[luc2CP/puro] reporter vector containing GLO1-ARE was transfected into the HepG2 cell line according to the method set forth in Xue et al. (Biochem. J., 443, 213-222 (2012)). Transfected HepG2 cells were selected with puromycin (1 μg/ml). After culture for 3 weeks, puromycin-resistant cells were screened for luciferase activity after treatment with 4 μM sulforaphane for 6 hours. After validation of positive clones by measuring luciferase activity, the GLO1-ARE stable cell line, R1F3, was expanded in selection media.
as §1, with “line R1F3” for “line”
as §2

ICAM1 mRNA = test: ICAM1 mRNA, focused quantitative mRNA profiling; assay type: cell-based, human; settings: HAECs
HO-1 mRNA = test: HO-1 (HMOX1) mRNA by digital mRNA profiling (NanoString nCounter); assay type: cell-based; settings: human dermal foreskin BJ fibroblasts; 5 μM of each compound; 12 hours; n = 3; ± SD
Experimental: (§3) Human dermal foreskin BJ fibroblasts at cumulative population doubling of 22 were purchased from the European Collection of Animal Cell Cultures (Porton Down, UK). They were cultured in Eagle's Minimum Essential Medium (MEM) with 10% fetal calf serum and 2 mM glutamine under an atmosphere of 5% CO2 in air, 100% humidity and 37° C.

[3] = reviewed in Vang et al. and Parhiz et al.; cited from earlier work
[4] = tested on: oxidised glutathione (GSSG); test: Cellular GSSG content; assay type: cell-based, human; settings: HAECs, BJ fibroblasts and HepG2 cells; 5 μM single compound
GSH = test: Cellular GSH content; assay type: cell-based, human; settings: HAECs, BJ fibroblasts and HepG2 cells; 5 μM single compound
[5] = HATFF study: total urinary metabolites of tRES and HESP (LC-MS/MS); assay type: in vivo, human; settings: urine
NQO-1 mRNA = NQO-1 mRNA by digital mRNA profiling (NanoString nCounter); assay type: cell-based; settings: human dermal foreskin BJ fibroblasts; 5 μM of each compound; 12 hours; n = 3; ± SD
Experimental: as §3

human BJ fibroblasts = test: Cytotoxicity in human BJ fibroblasts in primary culture; assay type: cell-based; settings: for toxicity (cytotoxicity): individually or with 5 μM combination with primary bioactive compound, concentrations ≤20 μM
Experimental: Primary human aortal endothelial cells (HAEC) were purchased from Lonza (Slough, U.K). HAEC cells were grown in proprietary large vessel endothelial cell basal media supplemented with large vessel endothelial cell growth supplement (containing hydrocortisone, human epidermal growth factor, human fibroblast growth factor with heparin and in 2% (/v/) FBS), 25 μg/ml gentamicin and 50 ng/ml amphotericin B. Human dermal foreskin BJ fibroblasts at cumulative population doubling of 22 were purchased from the European Collection of Animal Cell Cultures (Porton Down, UK). They were cultured in MEM medium with 10% fetal calf serum and 2 mM glutamine under an atmosphere of 5% CO2 in air, 100% humidity and 37° C.

[6] = tested on: matrix metalloproteinase-3 protein (MMP); test: Cellular MMP-3 protein marker; assay type: cell-based, human; settings: BJ fibroblasts; 5 μM
[7] = dietary supplement of 150 mg HESP (Takumi et al.); cited from earlier work
[8] = patients with type 2 diabetes; 1.7 g metformin per day; cited from earlier work
human hair follicle = settings: WO 2014/095289 Example 3; cited from earlier work
NQO-1 gene expression = settings: WO 2014/095289 Example 4; cited from earlier work
HO-1 gene expression = settings: WO 2014/095289 Example 4; cited from earlier work
[9] = compound alone, HepG2 reporter, 6 h, read-out: EC50 for GLO1-ARE transcriptional response

O=C1CC(c2ccc(O)c(O)c2)Oc2cc(O)cc(O)c21 (stereo not drawn) [Eriodictyol, 2-(3,4-Dihydroxyphenyl)-5,7-dihydroxy-4-chromanone]
NQO-1—ARE transcription in HepG2 cells (in words) [1]: up-regulate | NQO-1 - ARE transcription, normalised to positive control (blank = 0%, 10 μM trans-resveratrol = 100%) [1]: 95.3 ± 14.7%

O=C1C[C@@H](c2ccc(O)cc2)Oc2cc(O)cc(O)c21 [Naringenin, naringenin, reference compound]
NQO-1—ARE transcription in HepG2 cells (in words) [1]: does not up-regulate | NQO-1 - ARE transcription, normalised to positive control (blank = 0%, 10 μM trans-resveratrol = 100%) [1]: −2.75 ± 5.24%

Oc1cc(O)cc(/C=C/c2ccc(O)c(O)c2)c1 [Piceatannol, piceatannol]
NQO-1 - ARE transcription, normalised to positive control (blank = 0%, 10 μM trans-resveratrol = 100%) [1]: 66.6 ± 2.4% | GLO1-ARE transcription, normalised to positive control (blank = 0%, 10 μM trans-resveratrol = 100%) ([2]; HepG2): 61.3 ± 31.0%

COc1cc(/C=C/c2ccc(O)cc2)cc(OC)c1 [Pterostilbene, pterostilbene]
NQO-1 - ARE transcription, normalised to positive control (blank = 0%, 10 μM trans-resveratrol = 100%) [1]: 41.8 ± 2.7% | GLO1-ARE transcription, normalised to positive control (blank = 0%, 10 μM trans-resveratrol = 100%) ([2]; HepG2): 37.5 ± 18.3%

COc1ccc(C2CC(=O)c3c(O)cc(O)cc3O2)cc1O (stereo not drawn) [hesperetin, 2,3-Dihydro-5,7-dihydroxy-2-(3-hydroxy-4-methoxyphenyl)-4H-1-benzopyran-4-one]
ICAM1 mRNA (ICAM1 mRNA; 5 μM HESP individually, 6 h post-treatment): tended to increased | HO-1 mRNA (relative mRNA copy numbers as a % of vehicle control) (HO-1 mRNA): 95.4 ± 3.7 % of vehicle control | safety assessments (tolerability) [3]: highly tolerated | cellular level of GSSG [4]: did not change | cellular level of GSH (GSH): did not change | NQO-1 - ARE transcription, normalised to positive control (blank = 0%, 10 μM trans-resveratrol = 100%) [1]: 7.9 ± 0.7% | eriodictyol (demethylated HESP) in study samples [5]: no eriodctyol (demethylated HESP), was detected | NQO-1 mRNA (relative mRNA copy numbers as a % of vehicle control) (NQO-1 mRNA): 93.0 ± 3.5 % of vehicle control | toxicity (cytotoxicity) (human BJ fibroblasts; BJ fibroblasts): no toxicity | viability of BJ cells in vitro (human BJ fibroblasts; HESP (40 μM) with and without 5 μM tRES): minor decrease | cellular MMP-3 protein [6]: increase | GLO1-ARE transcription, normalised to positive control (blank = 0%, 10 μM trans-resveratrol = 100%) ([2]; HepG2): 13.0 ± 1.6% | logistic regression coefficient n, GLO1-ARE response ([2]; HESP alone): 2.01±0.02 | Emax ([2]; HepG2, compound alone): 24.4 ± 0.1% | EC50 [2, 9]: 590 ± 10 nM | peak plasma concentration of HESP [7]: 6.7 µM

CN(C)C(=N)N=C(N)N [metformin]
ΔOGIS [8]: +54 mlmin^−1m^−2

C[S+]([O-])CCCCN=C=S (stereo not drawn) [sulforaphane]
human hair follicle growth (human hair follicle): significantly up-regulates | NQO-1 gene expression in human hair follicles (NQO-1 gene expression): significantly up-regulates | HO-1 gene expression in human hair follicles (HO-1 gene expression): significantly up-regulates

Oc1ccc(/C=C/c2cc(O)cc(O)c2)cc1 [trans-resveratrol]
ICAM1 mRNA (ICAM1 mRNA; 5 μM tRES individually, 48 h post-treatment): tended to increased | cellular level of GSSG [4]: did not change | cellular level of GSH (GSH): did not change | NQO-1 - ARE transcription, normalised to positive control ([1]; 0.625 μM trans-resveratrol, 0 μM hesperetin): 1.9 ± 8.6% | NQO-1 - ARE transcription, normalised to positive control ([1]; 1.25 μM trans-resveratrol, 0 μM hesperetin): 6.4 ± 2.5% | NQO-1 - ARE transcription, normalised to positive control ([1]; 2.5 μM trans-resveratrol, 0 μM hesperetin): 15.7 ± 6.7% | NQO-1 - ARE transcription, normalised to positive control (blank = 0%, 10 μM trans-resveratrol = 100%) [1]: 58.0 ± 2.5% and 56.9 ± 1.7% | NQO-1 - ARE transcription, normalised to positive control ([1]; 10 μM trans-resveratrol, 0 μM hesperetin (positive control = 100%)): 100.0 ± 10.0% | toxicity (cytotoxicity) (human BJ fibroblasts; BJ fibroblasts): no toxicity | cell number (human BJ fibroblasts; tRES (5 μM) with 0.625 μM HESP, BJ fibroblasts): minor increase | viability of BJ cells in vitro (human BJ fibroblasts; tRES (40 μM) with 5 μM HESP): minor decrease | cellular MMP-3 protein [6]: decreases | GLO1-ARE transcription, normalised to positive control ([2]; 0.625 μM trans-resveratrol, 0 μM hesperetin, HepG2): 4.0 ± 2.2% | GLO1-ARE transcription, normalised to positive control ([2]; 1.25 μM trans-resveratrol, 0 μM hesperetin, HepG2): 19.2 ± 7.6% | GLO1-ARE transcription, normalised to positive control ([2]; 2.5 μM trans-resveratrol, 0 μM hesperetin, HepG2): 53.8 ± 7.4% | GLO1-ARE transcription, normalised to positive control (blank = 0%, 10 μM trans-resveratrol = 100%) ([2]; HepG2): 67.6 ± 14.5% | GLO1-ARE transcription, normalised to positive control ([2]; 10 μM trans-resveratrol, 0 μM hesperetin (positive control = 100%), HepG2): 100.0 ± 2.9% | predicted increase of GLO1-ARE transcriptional response ([2]; 0.1-1.0 tRES in the presence of 5 μM HESP): 3-79 fold | increased GLO1-ARE transcriptional response over additive effects ([2]; 0.1-1.0 tRES in the presence of 5 μM HESP, predicted): up to 79% | Emax of tRES, GLO1-ARE response ([2]; 0.625-10 μM tRES with 5 μM HESP): maintaining the Emax | EC50 ([2]; HepG2, 0.625-10 μM tRES with 5 μM HESP, read-out: EC50 of tRES for GLO1-ARE transcriptional response): 1460 ± 100 nM | Emax ([2]; HepG2, compound alone): 100 ± 8.9% | EC50 [2, 9]: 2520 ± 190 nM
